Assay results published in the NIST ThermoML archive (doi:10.1021/je200862b).

Tests used:
[1] = 101 kPa, Liquid; for viscosity: Capillary tube (Ostwald / Ubbelohde) method
[2] = xn = mol fraction of the nth substance listed; settings: 101 kPa, Liquid; for viscosity: Capillary tube (Ostwald / Ubbelohde) method

CN(C)c1ccccc1 [N,N-dimethylaniline]
[1]
Settings | viscosity [mPa·s]
303.15 K | 1.174
313.15 K | 0.9823
323.15 K | 0.8259

[1], Pycnometric method
Settings | mass density [kg/m3]
303.15 K | 948.02
313.15 K | 938.5
323.15 K | 930.72

CCN(CC)c1ccccc1 [N,N-diethylaniline]
[1]
Settings | viscosity [mPa·s]
303.15 K | 1.703
313.15 K | 1.402
323.15 K | 1.049

[1], Vibrating tube method
Settings | mass density [kg/m3]
303.15 K | 925.98
313.15 K | 917.72
323.15 K | 912.8

CN(C)c1ccccc1 [N,N-dimethylaniline] + CCC(=O)O
viscosity [mPa·s], [2]
Settings | x2 = 0 | x2 = 0.102 | x2 = 0.2054 | x2 = 0.3071 | x2 = 0.4092 | x2 = 0.5107 | x2 = 0.6178 | x2 = 0.7083 | x2 = 0.8023 | x2 = 0.8987
303.15 K | 1.174 | 1.27 | 1.329 | 1.386 | 1.446 | 1.494 | 1.545 | 1.534 | 1.457 | 1.225
313.15 K | 0.9823 | 1.019 | 1.058 | 1.093 | 1.124 | 1.149 | 1.151 | 1.119 | 1.06 | 0.9646
323.15 K | 0.8259 | 0.8432 | 0.8693 | 0.8949 | 0.9196 | 0.9397 | 0.9442 | 0.9121 | 0.864 | 0.7783

mass density [kg/m3], [2], Pycnometric method
Settings | x2 = 0 | x2 = 0.102 | x2 = 0.2054 | x2 = 0.3071 | x2 = 0.4092 | x2 = 0.5107 | x2 = 0.6178 | x2 = 0.7083 | x2 = 0.8023 | x2 = 0.8987
303.15 K | 948.02 | 954.36 | 959.8 | 964.49 | 969.31 | 974.03 | 978.56 | 982.24 | 985.32 | 986.44
313.15 K | 938.5 | 943.74 | 949.09 | 954.21 | 959.17 | 963.99 | 968.62 | 972.2 | 975.35 | 975.69
323.15 K | 930.72 | 934.82 | 939.72 | 944.52 | – | 953.51 | 958 | 961.05 | 963.47 | 963.54

CCC(=O)O [propanoic acid] + CN(C)c1ccccc1
[2], x1 = 1
Settings | viscosity [mPa·s]
303.15 K | 0.9496
313.15 K | 0.8476
323.15 K | 0.7062

[2], Pycnometric method, x1 = 1
Settings | mass density [kg/m3]
303.15 K | 982.09
313.15 K | 973.4
323.15 K | 961.39

CCC(=O)O [propanoic acid] + CCN(CC)c1ccccc1
[2], x1 = 1
Settings | viscosity [mPa·s]
303.15 K | 0.9496
313.15 K | 0.8476
323.15 K | 0.7062

[2], Vibrating tube method, x1 = 1
Settings | mass density [kg/m3]
303.15 K | 982.09
313.15 K | 973.4
323.15 K | 961.39

CCC(=O)O [propanoic acid]
[1]
Settings | viscosity [mPa·s]
303.15 K | 0.9496
313.15 K | 0.8476
323.15 K | 0.7062

[1], Pycnometric method
Settings | mass density [kg/m3]
303.15 K | 982.09
313.15 K | 973.4
323.15 K | 961.39

CCN(CC)c1ccccc1 [N,N-diethylaniline] + CCC(=O)O
viscosity [mPa·s], [2]
Settings | x2 = 0 | x2 = 0.1047 | x2 = 0.2096 | x2 = 0.3142 | x2 = 0.4164 | x2 = 0.5177 | x2 = 0.6097 | x2 = 0.7077 | x2 = 0.8123 | x2 = 0.9156
303.15 K | 1.703 | 1.801 | 2.04 | 2.404 | 2.91 | 3.663 | 4.04 | 3.968 | 3.26 | 1.532
313.15 K | 1.402 | 1.45 | 1.59 | 1.765 | 2.118 | 2.527 | 2.88 | 2.737 | 2.086 | 1.247
323.15 K | 1.049 | 1.068 | 1.173 | 1.315 | 1.555 | 1.865 | 2.1 | 1.949 | 1.51 | 0.9723

mass density [kg/m3], [2], Vibrating tube method
Settings | x2 = 0 | x2 = 0.1047 | x2 = 0.2096 | x2 = 0.3142 | x2 = 0.4164 | x2 = 0.5177 | x2 = 0.6097 | x2 = 0.7077 | x2 = 0.8123 | x2 = 0.9156
303.15 K | 925.98 | 933.41 | 942.07 | 952.1 | 963.82 | 977.88 | 989.1 | 996.15 | 995 | 990.93
313.15 K | 917.72 | 924.61 | 932.8 | 942.21 | 953.72 | 967.27 | 977.5 | 983.95 | 982.7 | 980.07
323.15 K | 912.8 | 919.51 | 926.38 | 934.92 | 944.35 | 955.31 | 965.34 | 971.29 | 974.71 | 974.19
